The record followed here is patent US10457707B2, “Substituted urea depsipeptide analogs as activators of the CLPP endopeptidase” (priority 2015, dated 2019).

Each structure is given as a SMILES string. In brackets after ≈: the same amount, converted by molar mass. *1 amine or outer side, *2 acyl side, *3 side chain or, on linkers, in order; H or OH if unused. Where a SMILES comes first, the peptide text is derived from it. Bridges are numbered along the chain shown (N, C = ends). [ ]: non-standard residue; d: D form. The star is where a group is joined. Piperazine(2S-CO,4-Me) = CN1CCN[C@H](C(=O)O)C1; Phe(3,5-F2) = N[C@@H](Cc1cc(F)cc(F)c1)C(=O)O; NH(4-Cl-2-F-phenyl) = Fc1cc(Cl)ccc1N*; Pro(4R-Me) = C[C@H]1CN[C@H](C(=O)O)C1; CO = O=C([*:1])[*:2]

Assay type in all cases: cell-based
Data set [1] can be described thus: Cytotoxicity assay (CellTiter-Glo cell viability, 72 hours). Particulars: African green monkey. Summed up: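 Viability measured by CellTiter-Glo luminescence after 72-hour compound exposure (serial dilutions, DMSO control) of Vero monolayers seeded at 5000 cells/well in 10% FBS DMEM. IC50 values are the range of two biologically independent experiments, each run in duplicate.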
(ATP-based viability assays read luminescence as a measure of living cells.)

Data set [2] has as its system Staphylococcus aureus, ATCC 29213. Kind of data set: Minimal inhibitory concentration assay (microbroth dilution). Particulars: ATCC29213, read-out: Minimal Inhibitory Concentrations S. aureus ATCC 29213. Summed up:
(§1)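 Paired MICs against USA 300 and its ClpP-inactivated counterpart test whether killing runs through ClpP. All strains: two-fold broth dilutions from 200 μM final, ~10^5 cfu/mL inoculum, overnight at 37 °C in air, lowest growth-free concentration read by eye.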
In general terms: Broth dilution looks for growth in wells or tubes with falling amounts of substance.

The subject of data set [3] is Bacillus subtilis, ATCC 23857. The description is as above. Particulars: Bacillus subtilis, ATCC23857; read-out: Minimal Inhibitory Concentrations B. subtilis ATCC 23857. The essentials: as §1
The test system of data set [4] is Staphylococcus aureus, NRS70. The description is as above. To be noted: Staphylococcus aureus, NRS70; read-out: Minimal Inhibitory Concentrations S. aureus NRS70. The essentials:
as §1

For data set [5], the system named is Streptococcus pyogenes, ATCC 700294. The description is as above. Particulars: Streptococcus pyogenes, ATCC700294; read-out: Minimal Inhibitory Concentrations S. pyogenes ATCC 700294. Summed up: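 Plates with two-fold compound dilution series in broth were incubated overnight, aerobically, at 37° C, following CLSI microdilution guidance.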

Turning to `C[C@@H]1C[C@H]2C(=O)OC[C@H](NC(=O)[C@H](Cc3cc(F)cc(F)c3)NC(=O)Nc3ccc(Cl)cc3F)C(=O)N3CCC[C@H]3C(=O)N3CCN(C)C[C@H]3C(=O)N[C@@H](C)C(=O)N2C1` [Compound 330, (S)-2-(3-(4-chloro-2-fluorophenyl)ureido)-3-(3,5-difluorophenyl)-N-((6aS,12S,15aS,17R,21S,23aS)-2,17,21-trimethyl-6,11,15,20,23-pentaoxooctadecahydro-2H,6H,11H,15H-pyrazino[2,1-i]dipyrrolo[2,1-c:2′,1′-l][1]oxa[4,7,10,13]tetraazacyclohexadecin-12-yl)propanamide] ({NH(4-Cl-2-F-phenyl)-CO}-[Phe(3,5-F2)]SP[Piperazine(2S-CO,4-Me)]A[Pro(4R-Me)]; ester 2-C), in data set [1], the IC50 (in general, the point on the concentration scale where inhibition reaches its midpoint) at 72 h was above 50 µM. The MIC is 0.078 µM (≈ 0.0661 µg/mL) in data set [2], below 0.02 µM in data set [3], 0.078 µM (≈ 0.0661 µg/mL) in data set [4] and 0.078 µM (≈ 0.0661 µg/mL) in data set [5].
